“Also recorded” adds a separate entry of the source.

What all share (type): cell-based, rat
For series [1], the system named is HCN cells (adult hippocampal neural progenitor cells). The experiment in a line: Neuronal and astroglial differentiation of HCN cells by TuJ1/GFAP double-immunofluorescence staining. The following applies: for Relative activity at ECmax: ECmax relative to Compound A, compound 2 (100) and DMSO (0 or no active, N/A), AP = Anti-proliferation. Here is the method:
Cell Culture: Neural precursor cells isolated from the hippocampus of adult female Fischer 344 rats^(1) were maintained in N2 supplemented (Invitrogen) DMEM: Ham's F12 (Omega scientific) medium containing 20 ng/mL FGF-2 (PeproTech Inc.) HCN cells were expanded and maintained in an undifferentiated state on a polyornithine/laminin-coated dish in a defined serum-free growth medium (DMEM/F12 supplemented with N2 and 20 ng/ml bFGF) in a homogeneous monolayer. Neuronal and astroglial differentiation was analyzed directly with double-immunofluorescence staining of βIII tubulin (TuJ1) as a neuronal marker and glial fibrillary acidic protein (GFAP) as an astroglial marker. A combinatorial heterocycle library of 50,000 compounds was screened using undifferentiated, early passage HCN cells plated onto polyornithine/lamin-coated 384-well plates at a density of 6,000 cells/well in complete growth medium. After overnight incubation, the medium was exchanged with bFGF-free basal medium, and 5 μM of the compounds (final concentration) were added to each well. After treatment with compound for four days, cells were fixed and stained with βIII tubulin/TUJ1 and GFAP antibodies, the morphology of positively stained cells was analyzed, and the number of cells with the desired phenotypes was counted.
(§1) Immunocytochenzistry: Cells were fixed with 4% paraformaldehyde for 30 min and washed with PBS, and then blocked for 1 hour at room temperature in PBS containing 0.3% Triton X-100 and 5% donkey serum (PBS-B). Samples were incubated in PBS-B containing dilutions (1:1500) of two primary antibodies for 24 hrs at 4° C., washed three times with PBS, and incubated w secondary antibodies conjugated to Cy3 (Jackson ImmunoResearch Laboratories, Inc.) Alexa Fluor 488 (Molecular Probe Inc.). The samples then were treated with 1 μg/mL 4′,6-diamidino-2-phenylindole (DAPI) for 30 min at room temperature, and then washed three times with PBS.
A combinatorial heterocycle library of 50,000 compounds was screened using undifferentiated, early passage HCN cells plated onto polyornithine/lamin-coated 384-well plates at a density of 6,000 cells/well in complete growth medium. After overnight incubation, the medium was exchanged with bFGF-free basal medium, and 5 μM of the compounds (final concentration) were added to each well. After treatment with compound for four days, cells were fixed and stained with βIII tubulin/TUJ1 and GFAP antibodies, the morphology of positively stained cells was analyzed, and the number of cells with the desired phenotypes was counted.

The subject of series [2] is HCN cells. In words: BrdU proliferation assay. The following applies: HCN cells treated 5 hours in bFGF-free N2 medium; 15, 10, 5 μM Compound A or 1, 0.5, 0.25 μM RA; BrdU 2 hours. Here is the method:
BrdU proliferation assay: Cells were treated with compounds (Compound A and
(§2) RA). After 5 hours, the medium was changed and 10 μM of 5-bromo-2′-deoxy-uridine (BrdU) (final concentration) was added to each well. After treatment with BrdU for 2 hours, cells were fixed, washed three times with 01M Tris-buffer, and incubated in 2N HCl at 37° for 30 min. After treatment with 0.1M borate buffer (pH 8.5) for 10 min, cells were washed three times with PBS and treated with blocking buffer (PBS containing 0.3% Triton-X and 5% donkey serum) for 60 min. After overnight incubation with anti-BrdU (1:400) antibody, cells were washed with PBS and incubated with secondary antibody conjugated to Cy3 (1:1000) for 2 hours. After washing with PBS, BrdU-positive cells were counted.

The test system of the next series is Sox2. In words: Semi-quantitative RT-PCR of marker genes: Sox2. The following applies: HCN cells, 10 μM Compound A versus compound-free N2 medium.
In another series the test system is NeuroD1. In words: Semi-quantitative RT-PCR of marker genes: NeuroD1. The following applies: HCN cells, 10 μM Compound A versus compound-free N2 medium.
Series [3] concerns HCN cells. The experiment in a line: Astroglial differentiation of HCN cells induced by LIF/BMP2/FBS. The following applies: 50 ng/ml LIF, 50 ng/ml BMP2 and 0.5% FBS; compound A 20 μM, RA 5 μM; listed as Compound A.
Series [4] has as its system HCN cells. The experiment in a line: Cytotoxic effects on HCN cells.
The test system of the next series is NeuroD1 and NeuN. The experiment in a line: BrdU labeling with immunocytochemistry to detect NeuroD1 and NeuN. The following applies: HCN cells (FIG. 4). The procedure: as §1, §2
(Uptake of a labelled nucleoside into DNA is a usual measure of proliferation.)

[5] abbreviates: HCN cells treated with Compound A.

With `CCOC(=O)c1ccc(N(C)c2csc(-c3ccccc3)n2)cc1` [Compound 2], in series [1], the “Relative activity at ECmax” value is 100. The “cells differentiated into neuronal cells (immunostaining with TuJ1 and characteristic neuronal morphology)” value in series [1] (setting [5]) is listed as “more than 90%”. In series [1] (HCN cells, bFGF-free basal medium, four days), the “neuronal differentiation-inducing activity (screen and sublibrary)” value is “highest activity among the analogues tested”. Besides, the “lineage specificity: GFAP-positive (astroglial) versus neuronal cells after treatment” value in series [1] (four days in N2 media, 10 μM Compound A or 2 μM RA (FIG. 2)) is reported as “GFAP-positive cells were very rarely detected”. Further, in series [1] (seven days of treatment with 10 μM Compound A), the “staining for later stage neuronal markers neurofilament-H and Map2(a+b)” value is “positive staining”. In addition, in the series on HCN cells [2], the “cell proliferation (BrdU-positive cells)” value is “significantly slowed cell proliferation”. The “Sox2 (neural progenitor marker) mRNA level” value with Sox2 is “down-regulated”. In addition, in the series with NeuroD1, the “NeuroD1 (neuronal cell marker) mRNA level” value is on record as “up-regulated”. In addition, the “inhibition of astroglial differentiation induced by LIF and BMP2” value in the series with HCN cells [3] was “can also inhibit astroglial differentiation; also recorded: can competitively suppress astrogliogenesis by LIF/BMP2/FBS in a dose-dependent manner”. Further, the visible cytotoxic effects result in the series on HCN cells [4] (setting [5]) is “without visible cytotoxic effects”. In addition, in the series with NeuroD1 and NeuN, the “expression of neuron-specific marker genes NeuroD1 and NeuN” value is recorded as “induces expression of neuron-specific marker genes”.
Consider `CC1=C(/C=C/C(C)=C/C=C/C(C)=C/C(=O)O)C(C)(C)CCC1` [RA, retinoic acid, reference compound], for which, in the series on HCN cells [4] (over 2 μM in growth factor (bFGF or LIF/BMP2)-free basal medium), the cytotoxicity entry is reported as “significant cytotoxicity”.
As to “ethyl 4-(2-phenylthiazol-4-ylamino) benzoate [Compound 1]”, the “Relative activity at ECmax” value in series [1] was 10.
